Reference: patent publication US12643859B2, “Pyridyl oxycarboxylic acid oxime derivative and preparation method therefor, weeding composition and application thereof” (Qingdao Kingagroot Chemical Compound Co., Ltd., priority 2018, dated 2026)

System: Monocotyledonous and dicotyledonous weed seeds and main crop seeds
Assay: Post-emergence test experiment (Table 3, 1000 g a.i./ha)
Format: in vivo
Conditions: 3 weeks in greenhouse, fresh weight inhibition
Procedure: The above described growth inhibition rate is fresh weight inhibition rate.
Post-emergence test experiment: Monocotyledonous and dicotyledonous weed seeds and main crop seeds (i. e. wheat, corn, rice, soybean, cotton, oilseed, millet and sorghum.) were put into a plastic pot loaded with soil. Then covered with 0.5-2 cm soil, the seeds were allowed to grow in good greenhouse environment. The test plants were treated at 2-3 leaf stage 2 weeks after sowing. The test compounds of the invention were dissolved with acetone respectively, then added with tween-80, and using 1.5 liters per hectare of an emulsible concentrate of methyl oleate as a synergist, and diluted by certain amount of water to certain concentration. The solution was sprayed to the plants with a sprayer. Then the plants were cultured for 3 weeks in the greenhouse, and the experiment result of weed controlling effect was listed in tables 3-4.

CC(CCCl)=NOC(=O)C(C)Oc1nc(C)c(C)c(N)c1C (stereo not shown) [Compound 19]
Activity level (growth inhibition rate) Digitaria sanguinalis: 5 (Level 5: the growth inhibition rate is greater than 85%)
Activity level (growth inhibition rate) Echinochloa crusgalli: 5 (Level 5: the growth inhibition rate is greater than 85%)
Activity level (growth inhibition rate) Galium spurium: 5 (Level 5: the growth inhibition rate is greater than 85%)
Activity level (growth inhibition rate) Leptochloa chinensis: 5 (Level 5: the growth inhibition rate is greater than 85%)
Activity level (growth inhibition rate) Monochoria Vaginalis: 5 (Level 5: the growth inhibition rate is greater than 85%)
Activity level (growth inhibition rate) Murdannia triquetra: 5 (Level 5: the growth inhibition rate is greater than 85%)
Activity level (growth inhibition rate) Setaria viridis: 5 (Level 5: the growth inhibition rate is greater than 85%)

CCCC(C)=NOC(=O)C(Oc1nc(F)c(Cl)c(N)c1Cl)C1CC1 (stereo not shown) [Compound 28]
Activity level (growth inhibition rate) Galium spurium: 5 (Level 5: the growth inhibition rate is greater than 85%)
Activity level (growth inhibition rate) Monochoria Vaginalis: 5 (Level 5: the growth inhibition rate is greater than 85%)
Activity level (growth inhibition rate) Murdannia triquetra: 5 (Level 5: the growth inhibition rate is greater than 85%)

CC(=NOC(=O)C(C)Oc1nc(F)c(Cl)c(N)c1Cl)c1ccc([N+](=O)[O-])cc1 (stereo not shown) [Compound 71]
Activity level (growth inhibition rate) Digitaria sanguinalis: 5 (Level 5: the growth inhibition rate is greater than 85%)
Activity level (growth inhibition rate) Echinochloa crusgalli: 5 (Level 5: the growth inhibition rate is greater than 85%)
Activity level (growth inhibition rate) Galium spurium: 5 (Level 5: the growth inhibition rate is greater than 85%)
Activity level (growth inhibition rate) Leptochloa chinensis: 5 (Level 5: the growth inhibition rate is greater than 85%)
Activity level (growth inhibition rate) Monochoria Vaginalis: 5 (Level 5: the growth inhibition rate is greater than 85%)
Activity level (growth inhibition rate) Murdannia triquetra: 5 (Level 5: the growth inhibition rate is greater than 85%)
Activity level (growth inhibition rate) Setaria viridis: 5 (Level 5: the growth inhibition rate is greater than 85%)

CC(Oc1nc(F)c(Cl)c(N)c1Cl)C(=O)ON=Cc1cccc([N+](=O)[O-])c1 (stereo not shown) [Compound 73]
Activity level (growth inhibition rate) Digitaria sanguinalis: 5 (Level 5: the growth inhibition rate is greater than 85%)
Activity level (growth inhibition rate) Echinochloa crusgalli: 5 (Level 5: the growth inhibition rate is greater than 85%)
Activity level (growth inhibition rate) Galium spurium: 5 (Level 5: the growth inhibition rate is greater than 85%)
Activity level (growth inhibition rate) Leptochloa chinensis: 5 (Level 5: the growth inhibition rate is greater than 85%)
Activity level (growth inhibition rate) Monochoria Vaginalis: 5 (Level 5: the growth inhibition rate is greater than 85%)
Activity level (growth inhibition rate) Murdannia triquetra: 5 (Level 5: the growth inhibition rate is greater than 85%)
Activity level (growth inhibition rate) Setaria viridis: 5 (Level 5: the growth inhibition rate is greater than 85%)

CC(Oc1nc(F)c(Cl)c(N)c1Cl)C(=O)ON=C(c1ccccc1)c1cccc(Cl)c1 (stereo not shown) [Compound 79]
Activity level (growth inhibition rate) Digitaria sanguinalis: 5 (Level 5: the growth inhibition rate is greater than 85%)
Activity level (growth inhibition rate) Echinochloa crusgalli: 5 (Level 5: the growth inhibition rate is greater than 85%)
Activity level (growth inhibition rate) Galium spurium: 5 (Level 5: the growth inhibition rate is greater than 85%)
Activity level (growth inhibition rate) Leptochloa chinensis: 5 (Level 5: the growth inhibition rate is greater than 85%)
Activity level (growth inhibition rate) Monochoria Vaginalis: 5 (Level 5: the growth inhibition rate is greater than 85%)
Activity level (growth inhibition rate) Murdannia triquetra: 5 (Level 5: the growth inhibition rate is greater than 85%)
Activity level (growth inhibition rate) Setaria viridis: 5 (Level 5: the growth inhibition rate is greater than 85%)
